# Measured values published in article PMC8903780, “Therapeutic efficacy of an injectable formulation of purinostat mesylate in SU-DHL-6 tumour model” (Annals of Medicine, 2022).
# How the values were obtained:
# [1] = test system: human double-hit lymphoma SU-DHL-6 xenograft tumours; format: in vivo; details: positive control groups, dose column – (RTX 10 mg/kg)
# Description: To better determine the anti-tumour activity of the PM/HP-β-CD complex, the SU-DHL-6 cell line xenografts were established in immunodeficiency mice. The NOD/SCID mice were subcutaneously inoculated 7 × 10^6 cells per mouse. […] A mimic of HyperCVAD regimen, standard chemotherapy for B cell lymphoma ([22],[23]), especially aggressive subtypes, for example, double-hit lymphoma, was set as a positive control group for comparison (Table 2). Satellite groups were set up in the 10 mg/kg group, 20 mg/kg group, and the Hyper-CVAD group. Animals in the satellite groups were not sacrificed at the end of the treatment and underwent long-term treatment for further investigation. In the survival study, the animal mortality criterion was that the tumour volume reached 3000 mm^3 or the individual animal died, and the animal survival time was statistically analysed.
# When the experimental period was over, the tumour was weighed and photographed, the main organs and tumours were collected, fixed, and embedded in paraffin for Histological and immunohistochemical analysis.
# [2] = test system: SU-DHL-6 cells; experiment: Annexin V-FITC/PI flow cytometry apoptosis assay; format: cell-based, human; details: 6 nM, 48 h
# Description: The pro-apoptotic effect of the PM/HP-β-CD complex on SU-DHL-6 cells was investigated by flow cytometry. […] cells in good condition were collected and inoculated in the six-well plate with 2⋄10^5 cells per well. After being cultured for 24 h, cells were treated with PM and PM/HP-β-CD inclusion at 3 nM and 6 nM, using LBH589 at 6 nM as the positive control. The cells without drug treatment were the negative control. After 48 h incubation, the cells were then processed by annexin V-FITC/PI staining as the manufacturer’s instructions (KeyGen, 100 assays).
smiles,measurement,setting,value
"Cc1[nH]c2ccccc2c1CCNCc1ccc(/C=C/C(=O)NO)cc1 [LBH589, reference compound]",RTV,[1]; 14 days,26.54
same,Tumour volume T/C%,[1]; 14 days,101.83%
same,Tumour weight (g) X ± SD,[1]; 14 days,3.81 ± 1.08 g
same,Tumour weight Inhibition (%),[1]; 14 days,22.72%
same,Tumour volume (mm^3) X ± SD Begin,[1]; begin of treatment,152.7 ± 30.6 mm^3
same,Tumour volume (mm^3) X ± SD End,[1]; end of 14 days treatment,4015.5 ± 1048.0 mm^3
same,Number End/begin,"[1]; regimens Table 2, 14 days",7/7
same,apoptotic SU-DHL-6 cells,[2],60.1%
